Assay results published in patent publication US5552552A, “Crystalline salts of optically active aminocoumaran derivatives, their production and use” (Takeda Chemical Industries, Ltd., priority 1992, dated 1996).
Where a name gives a salt, the structure may show the parent alone.

Experiments:
[1] = system: behavioral change induced by spinal intrathecal injection of FeCl2 (ferrous chloride); experiment: Change of behavior induced by spinal intrathecal injection of FeCl2 in mice; assay type: in vivo, male Slc:ICR mice (printed "SIc: IcR mice"); details: 25 mg/kg oral; for Mean Score, 25 mg/kg Administered: behavior observed 15 min to 1 h after intrathecal 50 mM FeCl2, 5 μl/mouse, 10 mice per group, score 0 (normal) to 5 (death); for Percent Suppression (%): calculated from the mean behavioral scores, FeCl2 intrathecal, mice
Description: Effect on drugs on the change of behavior induced by spinal in intrathecal injection of FeCl2 in mice.
Male SIc: IcR mice (5 weeks) (10 mice per group) were used. […] The following criteria were used to score behavioral changes.
1: Frequent bites to lower limbs and lower abdomen.
2: One of the following three responses is seen: a) Violent bites to lower half of body, with occasionally rolling b) Hypersensitive aggressive behavior in response to external stimulation […]
4: Tonic convulsion, or unilateral or bilateral limb paralysis […]
Percent inhibitions were calculated from the scores obtained as above (percent inhibition=[(5-score)/5]×100). The subject compound salt was orally administered during the 30-minute period following administration of ferrous chloride.

[2] = Stability / hygroscopicity (no method); assay type: physicochemical; details: in words; derivative (B), racemate; no data
[3] = in words; free form (racemate), as described in EP-A-0483772; cited from earlier work

Row | SMILES | Mean Score, 25 mg/kg Administered [1] | Percent Suppression (%) [1] [%] | hygroscopicity and stability [2] | water solubility of the free form [3]
1 | Cc1c(C)c2c(c(C)c1N)C[C@](C)(CN1CCC(c3ccccc3)CC1)O2 [Example 4, (R)--(-)-5-amino-2,4,6,7-tetramethyl-2-(4-phenylpiperidinomethyl)-2,3-dihydrobenzo [b]furan dihydrochloride] | 1.3 | 72.3 | – | –
2 | Cc1c(C)c2c(c(C)c1N)CC(C)(CN1CCC(c3ccccc3)CC1)O2 (racemic) [Derivative (B), 5-amino-2,4,6,7-tetramethyl-2-(4-phenylpiperidinomethyl)-2,3-dihydrobenzo[b]furan] | – | – | hygroscopic and hence unstable | sparingly water-soluble
3 | Cc1c(C)c2c(c(C)c1N)C[C@@](C)(CN1CCC(c3ccccc3)CC1)O2 [Example 3, (S)--(+)-5-amino-2,4,6,7-tetramethyl-2-(4-phenylpiperidinomethyl)-2,3-dihydrobenzo [b]furan dihydrochloride] | 0.2 | 96 | – | –
